Reference: patent publication US20210361616A1, “AMELIORATING AGENT FOR FEMALE-SPECIFIC PHYSICAL AND/OR MENTAL UNPLEASANT SYMPTOM” (OTSUKA PHARMACEUTICAL CO., LTD., priority 2016, published 2021)

Columns and labels:
Format in all cases: in vivo, human
[1] = tested on: people who had any unpleasant symptom before menstruation; test: Combined administration test of γ-tocopherol and equol, MDQ questionnaire; conditions: suggested by the results of Test Example 1 and Test Example 2; equol alone not administered
[2] = tested on: people who had fluid retention before menstruation; test: Administration test of γ-tocopherol alone, VAS questionnaire; conditions: 360 mg/day γ-tocopherol, 7 days, 25 people, placebo-controlled double-blind
Description: (§1) Twenty-five people who had fluid retention before menstruation were subjected to randomly-assigned placebo-controlled double-blind tested group comparative study. […] An evaluation period is between the morning of the 6th day after the start of the continuous ingestion and the morning of the 8th day […]. Evaluation by questionnaires was conducted before every meal. An average value of variations from a start value of the evaluation was obtained to compare the tested group with the placebo group.
(§2) The evaluation by questionnaires was conducted by VAS (visual analog scale) and MDQ (menstrual distress questionnaire).
(§3) For VAS, the subjects indicated their symptoms about each questionnaire on a scale of “0 mm” (no symptom) to “100 mm” (the symptom is very strong/the symptom affects daily living), and an average value of variations from a start value of the evaluation was calculated. For MDQ, the subjects answered each questionnaire on a six-point scale of “0” (no symptom) to “5” (the symptom is very strong/the symptom affects daily living).

[3] = tested on: people who had fluid retention before menstruation; test: Administration test of γ-tocopherol alone, MDQ questionnaire; conditions: 360 mg/day γ-tocopherol, 7 days, 25 people
Description: as §1, §2, §3

| SMILES | effects of equol alone on "pain", "negative emotion", "concentration ability" and "change in behavior" [1] | VAS "annoyance or irritability" (mental unpleasant symptoms) as compared with a placebo group [2] | VAS leg swelling (physical unpleasant symptoms) as compared with a placebo group [2] | proportion of people who had decreased MDQ scores as compared with the placebo group, "change in behavior" [3] | proportion of people who had decreased MDQ scores as compared with the placebo group, item "concentration ability" [3] | proportion of people who had decreased MDQ scores as compared with the placebo group, item "fluid retention" [3] | proportion of people who had decreased MDQ scores as compared with the placebo group, item "negative emotion" [3] | proportion of people who had decreased MDQ scores as compared with the placebo group, item "pain" [3] |
| --- | --- | --- | --- | --- | --- | --- | --- | --- |
| Oc1ccc(C2COc3cc(O)ccc3C2)cc1 (centres unmarked) [equol] | has effects |  |  |  |  |  |  |  |
| Cc1c(O)cc2c(c1C)O[C@](C)(CCC[C@H](C)CCC[C@H](C)CCCC(C)C)CC2 [γ-tocopherol] |  | significant amelioration | significant amelioration | 32.0% | 36.0% | 56.0% | 28.0% | 44.0% |
